Assay results taken from PMC5458547, “Discovery of first-in-class reversible dual small molecule inhibitors against G9a and DNMTs in hematological malignancies” (Nature Communications, 2017).

What was measured:
SU8686 = assay: Cell proliferation assay (MTS); format: cell-based; conditions: Homo sapiens, SU.86.86; Pancreas
JMJD1A = target: T1, JMJD1A (Homo sapiens, UniProt Q9Y4C1); assay: Epigenetics selectivity panel (BPS Bioscience); format: biochemical
T1 construct: purchased DiscoverX KINOMEscan (kinases); BPS Bioscience (epigenetic targets)

1205-LU = assay: Cell proliferation assay (MTS); format: cell-based; conditions: Homo sapiens, Melanoma
DNMT3B = target: T2, DNMT3B (Homo sapiens, UniProt Q9UBC3); assay: Epigenetics selectivity panel (BPS Bioscience); format: biochemical
T2 construct: purchased BPS Bioscience (contract panel)

H23 = assay: Cell proliferation assay (MTS); format: cell-based; conditions: Homo sapiens, NCI-H23; NSCLC
WM-35 = assay: Cell proliferation assay (MTS); format: cell-based; conditions: Homo sapiens, WM35; Melanoma
HL-60 = assay: Cell proliferation assay (MTS); format: cell-based; conditions: Homo sapiens, AML, 48 h
[1] = Cytotoxicity in THLE-2 cells (ATP); format: cell-based; conditions: human; THLE-2, 72 h exposure; read-out: LC50
DNMT3A = target: T3, DNMT3A (Homo sapiens, UniProt Q9Y6K1); assay: Epigenetics selectivity panel (BPS Bioscience); format: biochemical
T3 construct: purchased BPS Bioscience (contract panel)

H358 = assay: Cell proliferation assay (MTS); format: cell-based; conditions: Homo sapiens, NCI-H358; NSCLC
SU-DHL-7 = assay: Cell proliferation assay (MTS); format: cell-based; conditions: Homo sapiens; GC-DLBCL, 48 h
MD-901 = assay: Cell proliferation assay (MTS); format: cell-based; conditions: Homo sapiens; ABC-DLBCL, 48 h
JMJD2C = target: T4, JMJD2C (Homo sapiens, UniProt Q9H3R0); assay: Epigenetics selectivity panel (BPS Bioscience); format: biochemical
T4 construct: purchased DiscoverX KINOMEscan (kinases); BPS Bioscience (epigenetic targets)

SK-MEL-147 = assay: Cell proliferation assay (MTS); format: cell-based; conditions: Homo sapiens, Melanoma
H209 = assay: Cell proliferation assay (MTS); format: cell-based; conditions: Homo sapiens, NCI-H209; SCLC
MM1.R = assay: Cell proliferation assay (MTS); format: cell-based; conditions: Homo sapiens, MM.1R
Human HDAC6 = target: T5, Human HDAC6 (Homo sapiens, UniProt Q9UBN7); assay: HDAC6 enzyme activity assay; format: biochemical
T5 construct: purchased DiscoverX KINOMEscan (kinases); BPS Bioscience (epigenetic targets)

COLO-205 = assay: Cell proliferation assay (MTS); format: cell-based; conditions: Homo sapiens, Colorectal
SETD2 = target: T6, SETD2 (Homo sapiens, UniProt Q9BYW2); assay: Epigenetics selectivity panel (BPS Bioscience); format: biochemical
T6 construct: purchased DiscoverX KINOMEscan (kinases); BPS Bioscience (epigenetic targets)

SK-MEL-103 = assay: Cell proliferation assay (MTS); format: cell-based; conditions: Homo sapiens, Melanoma
EZH2 = target: T7, EZH2 (Homo sapiens, UniProt Q15910); assay: Epigenetics selectivity panel (BPS Bioscience); format: biochemical
T7 construct: purchased DiscoverX KINOMEscan (kinases); BPS Bioscience (epigenetic targets)

A375 = assay: Cell proliferation assay (MTS); format: cell-based; conditions: Homo sapiens, A-375; Melanoma
UM-UC-1 = assay: Cell proliferation assay (MTS); format: cell-based; conditions: Homo sapiens; Bladder
SU-DHL-4 = assay: Cell proliferation assay (MTS); format: cell-based; conditions: Homo sapiens, GC-DLBCL, 48 h
Jarid1A = target: T8, Jarid1A (Homo sapiens, UniProt P29375); assay: Epigenetics selectivity panel (BPS Bioscience); format: biochemical
T8 construct: purchased DiscoverX KINOMEscan (kinases); BPS Bioscience (epigenetic targets)

A498 = assay: Cell proliferation assay (MTS); format: cell-based; conditions: Homo sapiens, Renal
TRIM24 = target: T9, TRIM24 (Homo sapiens, UniProt O15164); assay: Epigenetics selectivity panel (BPS Bioscience); format: binding
T9 construct: purchased DiscoverX KINOMEscan (kinases); BPS Bioscience (epigenetic targets)

PRMT6 = target: T10, PRMT6 (Homo sapiens, UniProt Q96LA8); assay: Epigenetics selectivity panel (BPS Bioscience); format: biochemical
T10 construct: purchased BPS Bioscience (contract panel)

RIVA = assay: Cell proliferation assay (MTS); format: cell-based; conditions: Homo sapiens; ABC-DLBCL, 48 h
RT112 = assay: Cell proliferation assay (MTS); format: cell-based; conditions: Homo sapiens, RT-112; Bladder
SUV39H2 = target: T11, SUV39H2 (Homo sapiens, UniProt Q9H5I1); assay: Epigenetics selectivity panel (BPS Bioscience); format: biochemical
T11 construct: purchased DiscoverX KINOMEscan (kinases); BPS Bioscience (epigenetic targets)

NP18 = assay: Cell proliferation assay (MTS); format: cell-based; conditions: Homo sapiens; Pancreas
Human HDAC1 = target: T12, Human HDAC1 (Homo sapiens, UniProt Q13547); assay: HDAC1 enzyme activity assay; format: biochemical
T12 construct: purchased DiscoverX KINOMEscan (kinases); BPS Bioscience (epigenetic targets)

SK-MEL-19 = assay: Cell proliferation assay (MTS); format: cell-based; conditions: Homo sapiens, SK-MEL19; Melanoma
PRMT3 = target: T13, PRMT3 (Homo sapiens, UniProt O60678); assay: Epigenetics selectivity panel (BPS Bioscience); format: biochemical
T13 construct: purchased DiscoverX KINOMEscan (kinases); BPS Bioscience (epigenetic targets)

hERG potassium channels = target: T14, hERG potassium channels (Homo sapiens, UniProt Q12809); assay: hERG blockade assay (Predictor fluorescence polarization); conditions: read-out: hERG binding IC50
T14 construct: purchased Life technologies PV5365

T10 sequence (Q96LA8 whole entry): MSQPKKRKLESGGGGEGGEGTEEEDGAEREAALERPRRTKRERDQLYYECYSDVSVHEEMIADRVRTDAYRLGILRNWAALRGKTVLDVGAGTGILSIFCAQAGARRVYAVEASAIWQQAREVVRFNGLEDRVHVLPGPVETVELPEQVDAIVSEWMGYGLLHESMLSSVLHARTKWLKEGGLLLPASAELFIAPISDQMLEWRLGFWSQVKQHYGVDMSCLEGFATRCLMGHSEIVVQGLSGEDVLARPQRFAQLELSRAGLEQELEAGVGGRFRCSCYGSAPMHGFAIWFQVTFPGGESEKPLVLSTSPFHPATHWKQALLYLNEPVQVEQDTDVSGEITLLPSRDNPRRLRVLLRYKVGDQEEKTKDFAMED
T12 sequence (Q13547 whole entry): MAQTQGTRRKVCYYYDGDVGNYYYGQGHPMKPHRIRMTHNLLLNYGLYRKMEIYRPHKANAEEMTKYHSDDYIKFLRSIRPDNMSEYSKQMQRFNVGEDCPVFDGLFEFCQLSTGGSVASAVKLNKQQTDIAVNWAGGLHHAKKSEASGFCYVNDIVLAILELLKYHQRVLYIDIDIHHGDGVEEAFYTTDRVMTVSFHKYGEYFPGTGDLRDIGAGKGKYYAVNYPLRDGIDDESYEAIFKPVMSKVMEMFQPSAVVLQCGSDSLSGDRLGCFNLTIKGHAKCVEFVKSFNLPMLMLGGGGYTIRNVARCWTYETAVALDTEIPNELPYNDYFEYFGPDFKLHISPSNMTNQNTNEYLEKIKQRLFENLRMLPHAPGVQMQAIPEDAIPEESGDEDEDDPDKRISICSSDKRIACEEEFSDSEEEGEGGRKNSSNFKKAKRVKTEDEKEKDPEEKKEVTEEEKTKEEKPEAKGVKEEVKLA
T13 sequence (O60678 whole entry): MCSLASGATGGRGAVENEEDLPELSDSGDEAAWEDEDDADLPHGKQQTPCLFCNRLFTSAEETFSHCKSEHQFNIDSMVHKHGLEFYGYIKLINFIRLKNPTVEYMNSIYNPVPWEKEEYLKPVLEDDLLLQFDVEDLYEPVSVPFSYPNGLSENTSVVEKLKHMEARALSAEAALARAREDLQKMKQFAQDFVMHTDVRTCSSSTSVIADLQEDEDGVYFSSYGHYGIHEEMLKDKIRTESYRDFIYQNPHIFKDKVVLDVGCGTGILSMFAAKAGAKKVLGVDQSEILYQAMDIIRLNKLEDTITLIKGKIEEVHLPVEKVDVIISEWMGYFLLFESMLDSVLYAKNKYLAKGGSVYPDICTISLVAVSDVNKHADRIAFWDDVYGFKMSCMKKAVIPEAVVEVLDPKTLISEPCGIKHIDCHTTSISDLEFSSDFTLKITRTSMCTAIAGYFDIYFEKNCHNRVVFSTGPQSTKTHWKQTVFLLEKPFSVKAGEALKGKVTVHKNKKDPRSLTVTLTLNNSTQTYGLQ
T3 sequence (Q9Y6K1 whole entry, looked up): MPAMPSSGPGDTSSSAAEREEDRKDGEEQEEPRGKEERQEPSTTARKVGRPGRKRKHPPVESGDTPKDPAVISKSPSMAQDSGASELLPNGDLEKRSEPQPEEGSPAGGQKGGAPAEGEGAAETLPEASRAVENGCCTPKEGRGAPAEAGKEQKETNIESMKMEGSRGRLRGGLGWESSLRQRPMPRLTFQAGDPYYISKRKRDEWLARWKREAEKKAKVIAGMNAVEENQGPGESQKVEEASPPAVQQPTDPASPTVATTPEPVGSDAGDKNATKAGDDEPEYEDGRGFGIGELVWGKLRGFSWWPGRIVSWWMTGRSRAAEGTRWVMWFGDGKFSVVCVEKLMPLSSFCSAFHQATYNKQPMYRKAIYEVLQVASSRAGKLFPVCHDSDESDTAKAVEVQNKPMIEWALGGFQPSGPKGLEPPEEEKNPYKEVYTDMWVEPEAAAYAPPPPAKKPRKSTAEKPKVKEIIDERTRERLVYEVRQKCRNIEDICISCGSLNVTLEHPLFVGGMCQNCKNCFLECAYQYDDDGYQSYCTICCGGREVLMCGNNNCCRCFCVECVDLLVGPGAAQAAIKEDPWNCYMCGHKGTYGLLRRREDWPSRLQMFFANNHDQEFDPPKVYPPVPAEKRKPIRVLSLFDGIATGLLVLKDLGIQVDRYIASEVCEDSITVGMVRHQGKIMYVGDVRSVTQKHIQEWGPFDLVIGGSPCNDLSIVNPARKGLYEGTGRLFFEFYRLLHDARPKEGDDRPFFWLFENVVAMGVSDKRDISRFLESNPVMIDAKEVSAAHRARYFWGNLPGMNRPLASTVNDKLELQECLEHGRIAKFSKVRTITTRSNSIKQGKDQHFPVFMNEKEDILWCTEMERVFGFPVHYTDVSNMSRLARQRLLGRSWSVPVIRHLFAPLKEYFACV
T1 sequence (Q9Y4C1 whole entry): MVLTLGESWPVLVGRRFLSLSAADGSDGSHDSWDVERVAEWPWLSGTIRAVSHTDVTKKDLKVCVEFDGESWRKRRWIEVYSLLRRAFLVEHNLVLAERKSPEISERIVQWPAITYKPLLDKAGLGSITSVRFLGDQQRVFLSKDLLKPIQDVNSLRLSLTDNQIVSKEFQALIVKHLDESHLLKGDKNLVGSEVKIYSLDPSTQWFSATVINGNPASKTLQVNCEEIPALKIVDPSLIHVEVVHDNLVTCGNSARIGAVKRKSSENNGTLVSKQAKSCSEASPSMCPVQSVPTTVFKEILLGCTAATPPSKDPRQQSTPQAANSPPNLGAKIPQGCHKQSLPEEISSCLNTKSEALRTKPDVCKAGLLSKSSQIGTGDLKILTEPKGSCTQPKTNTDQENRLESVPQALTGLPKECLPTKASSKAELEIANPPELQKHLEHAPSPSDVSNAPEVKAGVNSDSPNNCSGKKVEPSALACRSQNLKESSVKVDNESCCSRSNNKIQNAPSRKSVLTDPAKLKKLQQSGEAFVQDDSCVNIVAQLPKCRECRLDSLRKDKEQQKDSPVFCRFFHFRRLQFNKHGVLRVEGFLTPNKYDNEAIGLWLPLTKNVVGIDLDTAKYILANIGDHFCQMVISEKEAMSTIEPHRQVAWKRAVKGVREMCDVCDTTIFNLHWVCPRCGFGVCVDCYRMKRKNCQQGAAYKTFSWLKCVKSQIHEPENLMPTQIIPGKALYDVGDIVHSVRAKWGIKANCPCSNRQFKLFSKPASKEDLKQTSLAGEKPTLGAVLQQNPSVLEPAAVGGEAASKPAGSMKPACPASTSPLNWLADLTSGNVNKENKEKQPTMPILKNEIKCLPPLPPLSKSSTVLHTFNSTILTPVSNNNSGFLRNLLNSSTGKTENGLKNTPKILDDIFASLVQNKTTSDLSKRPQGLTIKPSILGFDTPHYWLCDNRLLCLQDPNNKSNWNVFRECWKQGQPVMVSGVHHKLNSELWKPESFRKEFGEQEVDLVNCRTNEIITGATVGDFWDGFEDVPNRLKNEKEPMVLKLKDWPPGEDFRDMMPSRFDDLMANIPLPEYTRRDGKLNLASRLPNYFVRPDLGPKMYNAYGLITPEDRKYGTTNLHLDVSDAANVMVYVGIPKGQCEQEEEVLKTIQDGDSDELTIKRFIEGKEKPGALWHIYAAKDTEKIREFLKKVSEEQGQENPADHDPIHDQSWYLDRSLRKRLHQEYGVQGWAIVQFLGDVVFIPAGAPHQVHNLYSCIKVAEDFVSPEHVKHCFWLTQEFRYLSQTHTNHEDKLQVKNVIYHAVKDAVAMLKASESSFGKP
T4 sequence (Q9H3R0 whole entry): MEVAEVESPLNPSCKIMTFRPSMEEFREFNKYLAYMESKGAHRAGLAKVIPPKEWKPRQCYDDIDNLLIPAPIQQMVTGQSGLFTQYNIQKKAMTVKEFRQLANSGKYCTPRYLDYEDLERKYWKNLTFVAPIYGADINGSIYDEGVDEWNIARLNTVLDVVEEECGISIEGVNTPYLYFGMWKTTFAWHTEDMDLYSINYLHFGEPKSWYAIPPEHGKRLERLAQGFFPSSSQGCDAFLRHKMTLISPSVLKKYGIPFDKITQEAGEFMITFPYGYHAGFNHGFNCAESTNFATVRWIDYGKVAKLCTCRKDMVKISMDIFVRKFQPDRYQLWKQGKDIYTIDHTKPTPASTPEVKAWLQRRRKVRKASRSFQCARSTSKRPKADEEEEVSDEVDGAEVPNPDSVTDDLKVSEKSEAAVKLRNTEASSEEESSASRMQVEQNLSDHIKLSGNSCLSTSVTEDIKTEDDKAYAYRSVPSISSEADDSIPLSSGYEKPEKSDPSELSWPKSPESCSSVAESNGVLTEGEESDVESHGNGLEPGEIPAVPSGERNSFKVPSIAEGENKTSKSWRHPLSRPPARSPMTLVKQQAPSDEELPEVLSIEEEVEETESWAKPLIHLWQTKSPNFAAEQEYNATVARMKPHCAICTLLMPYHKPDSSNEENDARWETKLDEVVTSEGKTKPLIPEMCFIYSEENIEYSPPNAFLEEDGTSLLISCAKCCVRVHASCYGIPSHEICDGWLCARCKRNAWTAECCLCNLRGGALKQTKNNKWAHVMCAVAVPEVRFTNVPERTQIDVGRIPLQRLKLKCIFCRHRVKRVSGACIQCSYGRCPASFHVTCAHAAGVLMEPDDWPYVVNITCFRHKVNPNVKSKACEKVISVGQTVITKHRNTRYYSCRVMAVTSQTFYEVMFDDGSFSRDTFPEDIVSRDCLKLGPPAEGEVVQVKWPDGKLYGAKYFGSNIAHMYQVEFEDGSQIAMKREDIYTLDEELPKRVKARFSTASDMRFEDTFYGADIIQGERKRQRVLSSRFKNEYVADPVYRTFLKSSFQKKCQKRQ

| SMILES | GI50 (SU8686) | inhibition at 10 µM (JMJD1A) | GI50 (1205-LU) | IC50 (DNMT3B) | GI50 (H23) | GI50 (WM-35) | GI50 (HL-60) | CC50 at 72 h [1] | IC50 (DNMT3A) | GI50 (H358) | inhibition at 10 µM (JMJD2C) | GI50 (SK-MEL-147) | GI50 (MM1.R) | inhibition at 10 µM (Human HDAC6) | GI50 (COLO-205) | inhibition at 10 µM (SETD2) | GI50 (SK-MEL-103) | inhibition at 10 µM (EZH2) | GI50 (A375) | inhibition at 10 µM (Jarid1A) | also measured |
| --- | --- | --- | --- | --- | --- | --- | --- | --- | --- | --- | --- | --- | --- | --- | --- | --- | --- | --- | --- | --- | --- |
| COc1cc2c(NC3CCN(C)CC3)cc(-c3ccc(C)o3)nc2cc1OCCCN1CCCC1 [CM-272, 6-methoxy-2-(5-methyl-2-furyl)-N-(1-methyl-4-piperidyl)-7-(3-pyrrolidin-1-ylpropoxy)quinolin-4-amine] | 1400 nM | 8% | 121 nM | 1200 nM | 2490 nM | 854 nM | 2900 nM | 1780 nM | 85 nM | 644 nM | 12% | 422 nM | 980 nM | 0% | 679 nM | 8% | 281 nM | 1% | 357 nM | 2% | GI50 (SU-DHL-7): 636 nM; GI50 (MD-901): 1460 nM; GI50 (H209): 1150 nM; GI50 (UM-UC-1): 842 nM; GI50 (SU-DHL-4): 1160 nM; GI50 (A498): 4760 nM; inhibition at 10 µM (TRIM24): 0%; inhibition at 10 µM (PRMT6): 82%; IC50 (PRMT6; BPS): 3000 nM; GI50 (RIVA): 1570 nM; GI50 (RT112): 899 nM; inhibition at 10 µM (SUV39H2): 4%; GI50 (NP18): 577 nM; inhibition at 10 µM (Human HDAC1): 0%; GI50 (SK-MEL-19): 1040 nM; inhibition at 10 µM (PRMT3): 7% |
| COc1cc2c(NCC3CCN(C)CC3)cc(-c3ccc(C)o3)nc2cc1OCCCN1CCCC1 [CM-579, 6-methoxy-2-(5-methyl-2-furyl)-N-[(1-methyl-4-piperidyl)methyl]-7-(3-pyrrolidin-1-ylpropoxy)quinolin-4-amine] | 621 nM | 6% | 20 nM | 1000 nM | 1140 nM | 168 nM | > 10000 nM | 1300 nM | 92 nM | 197 nM | 13% | 32 nM | 2110 nM | 0% | 275 nM | 0% | 29 nM | 0% | 48 nM | 27% | IC50 (hERG potassium channels): > 100000 nM; GI50 (A498): 441 nM; inhibition at 10 µM (TRIM24): 0%; inhibition at 10 µM (PRMT6): 40%; GI50 (RT112): 319 nM; inhibition at 10 µM (SUV39H2): 0%; inhibition at 10 µM (Human HDAC1): 0%; GI50 (SK-MEL-19): 161 nM; inhibition at 10 µM (PRMT3): 5% |
